Reference: patent US4298739A, “Novel carbostyril derivatives” (priority 1977, dated 1981)

What was measured:
[1] = Acute toxicity test, oral administration to mice; format: in vivo; conditions: mouse, in vivo, Male mice
Method: The test compounds were administered orally to the mice and LD50 (mg/kg) of the compounds was determined.

rabbit platelet [2] = assay: ADP-induced aggregation in rabbit platelets (AG-II Aggregometer); format: cell-based; parameters: inhibition: dose or concentration left out as unconfirmed; conditions: Oryctolagus cuniculus, Platelet, read-out: Inhibition effect on ADP-induced aggregation in rabbit platelet; for inhibition at 10 µM (stock): 10^-5 mole; for inhibition at 1 µM (stock): 10^-6 mole; for inhibition at 100 µM (stock): 10^-4 mole
Method: (§1) The platelet aggregation inhibitory effect is measured by using AG-II Aggregometer (manufactured by Bryston Manufacturing Co.). The blood sample used for the test is a 1/9 (by volume) mixture of sodium citrate and whole blood collected from rabbit. Said sample is subjected to 10-minute centrifugal separation at 1,000 r.p.m. to obtain a platelet rich plasma (PRP). The thus obtained PRP is separated, and the remaining blood sample is further subjected to 15-minute centrifugal separation at 3,000 r.p.m. to obtain a platelet poor plasma (PPP).
(§2) The number of platelets in the PRP is counted by the Brecher-Clonkite Method, and the PRP is diluted with the PPP to prepare a PRP sample with platelet concentration of 300,000/mm^3 for the adenosine diphosphate (ADP)-induced aggregation test. There is also prepared a PRP sample with platelet concentration of 450,000/mm^3 for the collagen-induced aggregation test.
(§3) 0.6 ml of said PRP sample is added into 0.01 ml of a solution of a test compound of a predetermined concentration and the mixture is placed in a 37° C. thermostat for one minute. Then 0.07 ml of an ADP or collagen solution is added to the mixture. Transmittance of this mixture is determined and the change of transmittance is recorded by using the aggregometer at stirrer speed of 1,100 r.p.m. In this test, Auren Beronal buffer (pH 7.35) is used for the preparation of the ADP or collagen solution. ADP is adjusted to a concentration of 7.5×10^-5 M, and the collagen solution is prepared by triturating 100 mg of collagen with 5 ml of said buffer and the supernatant is used as collagen inducer. Adenosine and acetylsalicylic acid are used as controls for the ADP-induced aggregation test and the collagen-induced aggregation test, respectively. The platelet aggregation inhibitory effect is measured in terms of percent inhibition with respect to the aggregation rate of the controls. The aggregation rate is calculated from the following formula:
(§4) Aggregation rate=(c-a)/(b-a)×100
(§5) b: transmittance of PRP containing a test compound and an aggregation inducer
(§6) The inhibitory effect of the tested compounds on collagen-induced aggregation in rabbit platelets is shown in Table 1, and such effect on ADP-induced aggregation is shown in Table 2. The compounds tested are as follows.

rabbit platelet [3] = assay: Collagen-induced aggregation in rabbit platelets (AG-II Aggregometer); format: cell-based; parameters: inhibition: dose or concentration left out as unconfirmed; conditions: Oryctolagus cuniculus, Platelet, read-out: Inhibition effect on collagen induced aggregation in rabbit platelet; for inhibition at 10 µM (stock): 10^-5 mole; for inhibition at 1 µM (stock): 10^-6 mole; for inhibition at 100 µM (stock): 10^-4 mole; for inhibition at 0.1 µM (stock): 10^-7 mole
Method: as §1, §2, §3, §4, §5, §6

| SMILES | LD50 [1] | inhibition at 10 µM (stock) (rabbit platelet [2]) | inhibition at 1 µM (stock) (rabbit platelet [2]) | inhibition at 10 µM (stock) (rabbit platelet [3]) | inhibition at 1 µM (stock) (rabbit platelet [3]) | inhibition at 100 µM (stock) (rabbit platelet [2]) | inhibition at 100 µM (stock) (rabbit platelet [3]) | also measured |
| --- | --- | --- | --- | --- | --- | --- | --- | --- |
| CN(C(=O)CCCOc1ccc2[nH]c(=O)ccc2c1)C1CCC(O)CC1 (stereo not drawn) [compound 2, 6-{3-[N-Methyl-N-(4-hydroxycyclohexyl)aminocarbonyl]propoxy}carbostyril] | > 1000 mg/kg | 90.3% | 54.3% | 100% | 89.7% |  |  |  |
| COc1ccc(CCN(C)C(=O)CCCOc2ccc3[nH]c(=O)ccc3c2)cc1OC [compound 4, 6-{3-[N-Methyl-N-(2-3',4'-dimethoxyphenylethyl)aminocarbonyl]propoxy}carbostyril] | > 1000 mg/kg | 16.1% | 6.9% | 46.5% | 19.2% | 70.4% | 82.9% |  |
| O=C(CCCOc1ccc2[nH]c(=O)ccc2c1)N(Cc1ccccc1)C1CCCCC1 [compound 5, 6-{3-(N-Cyclohexyl-N-benzylaminocarbonyl)propoxy]carbostyril] | > 1000 mg/kg | 90.7% | 61.2% | 91.8% | 88.4% |  |  | inhibition at 0.1 µM (stock) (rabbit platelet [2]; 10^-7 mole): 18.9%; inhibition at 0.1 µM (stock) (rabbit platelet [3]): 30.6% |
| CN(C(=O)CCCOc1ccc2[nH]c(=O)ccc2c1Cl)C1CCCCC1 [compound 6, 5-Chloro-6-[3-(N-methyl-N-cyclohexylaminocarbonyl)propoxy]carbostyril] | > 1000 mg/kg | 5.4% |  | 53.3% | 12.3% | 87.2% | 100% |  |
| O=C1CCc2cc(OCCCC(=O)N(C3CCCCC3)C3CCCCC3Cl)ccc2N1 (stereo not drawn) [compound 7, 6-{3-[N-Cyclohexyl-N-(2-chlorocyclohexyl)aminocarbonyl]propoxy}-3,4-dihydrocarbostyril] | > 1000 mg/kg |  |  |  |  |  |  | inhibition (rabbit platelet [2]): 82.9%; inhibition (rabbit platelet [3]): 89.9% |
| CN(C(=O)CC(O)COc1ccc2[nH]c(=O)ccc2c1)C1CCCCC1 (stereo not drawn) [compound 8, 6-[2-Hydroxy-3-(N-methyl-N-cyclohexylaminocarbonyl)propoxy]carbostyril] | > 1000 mg/kg | 41.1% |  | 86.8% | 2.9% | 91.7% | 85.5% |  |
| CC(COc1ccc2[nH]c(=O)ccc2c1)CC(=O)N(C)C1CCCCC1 (stereo not drawn) [compound 9, 6-[3-(N-Methyl-N-cyclohexylaminocarbonyl)-2-methylpropoxy]carbostyril] | > 1000 mg/kg | 70.4% | 5.8% | 100% | 100% | 92.8% | 100% | inhibition at 0.1 µM (stock) (rabbit platelet [3]): 11.2% |
| CN(C(=O)CCCOc1ccc(O)c2c1CCC(=O)N2)C1CCCCC1 [compound 10, 8-Hydroxy-5-[3-(N-Methyl-N-cyclohexylaminocarbonyl)propoxy]-3,4-dihydrocarbostyril] | > 1000 mg/kg | 18.4% |  | 29.3% |  | 53.9% | 91.8% |  |
| COc1ccc(CCN(Cc2ccccc2)C(=O)CCCOc2ccc3c(c2)CCC(=O)N3)cc1OC [compound 11, 6-{3-[N-Benzyl-N-(2-3',4'-dimethoxyphenylethyl)aminocarbonyl]propoxy}-3,4-dihydrocarbostyril] | > 1000 mg/kg | 12.5% | 16.9% | 75.8% | 28.1% | 87.5% | 88.1% |  |
| CCN(C(=O)CCCOc1c(Cl)cc(Cl)c2c1CCC(=O)N2)c1ccccc1 [compound 12, 6,8-Dichloro-5-[3-(N-ethylanilinocarbonyl)propoxy]-3,4-dihydrocarbostyril] | > 1000 mg/kg | 33.8% | 12.7% | 65.2% | 33.8% | 71.7% | 82.6% |  |
| O=C(CCCOc1ccc2[nH]c(=O)ccc2c1)NC1CCCCC1 [compound 13, 6-[3-(N-Cyclohexylaminocarbonyl)propoxy]carbostyril] | > 1000 mg/kg | 24.8% | 18% | 45.8% | 23.3% | 39.6% | 87.5% |  |
| C=CCN(C(=O)CCCOc1ccc2c(c1)CCC(=O)N2)C1CCCCC1 [compound 14, 6-[3-(N-Allyl-N-cyclohexylaminocarbonyl)propoxy]-3,4-dihydrocarbostyril] | > 1000 mg/kg | 25.7% | 15.1% | 42.3% | 15.7% | 41.3% | 82.4% |  |
| CN(C(=O)CCCOc1ccc2c(c1)CCC(=O)N2)C1CCCCC1 [compound 15, 6-[3-(N-Methyl-N-cyclohexylaminocarbonyl)propoxy]-3,4-dihydrocarbostyril] | > 1000 mg/kg | 26.8% | 10.8% | 92.6% | 34.1% | 88.3% | 94% |  |
| CCOC(=O)C(C)Oc1ccc2c(c1)CCC(=O)N2 (stereo not drawn) [compound 25, 6-(1-Ethoxycarbonylethoxy)-3,4-dihydrocarbostyril, reference compound] | > 1000 mg/kg |  |  |  |  |  |  |  |
| CCOC(=O)C(C)Oc1ccc2[nH]c(=O)ccc2c1 (stereo not drawn) [compound 26, 6-(1-Ethoxycarbonylethoxy)carostyril, reference compound] | > 1000 mg/kg |  |  |  |  |  |  |  |
| CCOC(=O)C(C)Oc1ccc2c(c1)CCC(=O)N2C (stereo not drawn) [compound 27, 1-Methyl-6-(1-ethoxycarbonylethoxy)-3,4-dihydrocarbostyril, reference compound] | 800 to 1000 mg/kg |  |  |  |  |  |  |  |
| CCOC(=O)C(C)Oc1ccc2c(c1)NC(=O)CC2 (stereo not drawn) [compound 28, 7-(1-ethoxycarbonylethoxy)-3,4-dihydrocarbostyril, reference compound] | > 1000 mg/kg |  |  |  |  |  |  |  |
| CCCCCOC(=O)C(C)Oc1ccc2c(c1)CCC(=O)N2 (stereo not drawn) [compound 30, 6-(1-Amyloxycarbonylethoxy)-3,4-dihydrocarbostyril, reference compound] | > 1000 mg/kg |  |  |  |  |  |  |  |
| CC(C)OC(=O)C(C)Oc1ccc2[nH]c(=O)ccc2c1 (stereo not drawn) [compound 31, 6-(1-Isopropoxycarbonylethoxy)carbostyril, reference compound] | 900 to 1000 mg/kg |  |  |  |  |  |  |  |
| CCOC(=O)CCCOc1cccc2c1CCC(=O)N2 [compound 32, 5-(3-Ethoxycarbonylpropoxy)-3,4-dihydrocarbostyril, reference compound] | > 1000 mg/kg |  |  |  |  |  |  |  |
| CCCCCOC(=O)CCCOc1ccc2c(c1)CCC(=O)N2 [compound 33, 6-(3-Amyloxycarbonylpropoxy)-3,4-dihydrocarbostyril, reference compound] | > 1000 mg/kg |  |  |  |  |  |  |  |
| CCOC(=O)CCCCCCOc1ccc2c(c1)CCC(=O)N2 [compound 35, 6-(6-Ethoxycarbonylhexyloxy)-3,4-dihydrocarbostyril, reference compound] | 750 to 1000 mg/kg |  |  |  |  |  |  |  |
| O=C(O)CCCCCCOc1ccc2c(c1)CCC(=O)N2 [compound 36, 6-(6-Carboxyhexyloxy)-3,4-dihydrocarbostyril, reference compound] | > 1000 mg/kg |  |  |  |  |  |  |  |
| CCOC(=O)C(C)Oc1cccc2c1NC(=O)CC2 (stereo not drawn) [compound 37, 8-(1-Ethoxycarbonylethoxy)-3,4-dihydrocarbostyril, reference compound] | 900 to 1000 mg/kg |  |  |  |  |  |  |  |
| CC(=O)Oc1ccccc1C(=O)O [compound 46, Aspirin, reference compound] |  | 0% |  |  |  | 7% |  | inhibition (rabbit platelet [3]): 9% |
